“Also recorded” adds a separate entry of the source. Where a SMILES comes first, the peptide text is derived from it. [ ]: non-standard residue; d: D form. ξ: configuration not given here. ξR = N=C(N)NCCCC(N)C(=O)O; ξE = NC(CCC(=O)O)C(=O)O
Experiments:
[1] = system: chicks trained on a weak training task; experiment: one trial passive avoidance task, weak training (10% methylanthranilate), memory enhancement; type: in vivo, chick; details: for bio-activity as a cognitive enhancer: chick, D/L forms compared with RER; for memory retention (percent showing avoidance and discrimination), FIG. 1: weak aversive learning task, ic injection 60 min pre-training, saline control
Experimental: FIG. 1 The effect of different D/L forms of tripeptide as memory enhancers on weak memory. Chicks were injected ic with different D/L forms of tripeptide 60 min pre-training and tested 24 after. The control group received saline. […] Each chick was trained and tested only once and differences between groups were tested for statistical significance by G-test (Sokal, and Rohlf, 1995). Note that the G-test reflects group differences, and so there are no error bars on the figures.
FIG. 3 The effect of Ac-rER as memory enhancer in chicks trained on a weak training task (WT). Chicks were injected 2×ip injections, 1 mg/100 gr bw, 30 min and 6 hr pre-training and tested 24 hr later. The control groups received Ac-REr. […] Each chick was trained and tested only once and differences between groups were tested for statistical significance by G-test (Sokal, and Rohlf, 1995).
FIG. 5 Dose-dependence of the effect of Ac-rER in weak training. Chicks were injected ip with different doses of the Ac-rER 60 min pre-training and tested 24 after. The control group received saline. […] Each chick was trained and tested only once and differences between groups were tested for statistical significance by G-test (Sokal, and Rohlf, 1995).
FIG. 6 Stability of Ac-rER. Chicks were injected ip with 2 mg/100 g bw of Ac-rER 1, 2, 4, 6 and 12 hr before training and tested 24 hr later. The control group received saline. […] Each chick was trained and tested only once and differences between groups were tested for statistical significance by G-test (Sokal, and Rohlf, 1995). […]
Commercially obtained Ross Chunky eggs were incubated and hatched in brooders and held until 16±6 hours old. Chicks were placed in pairs in small aluminium pens. Following an equilibration period of an hour, the chicks were pretrained and trained essentially as described by Lossner and Rose (J. Neurochem. 41, 1357-1363 (1983), the contents of which are incorporated herein by reference). Pretraining involved three 10 s presentations of a small (2 mm diameter) white bead, at approximately 5 minute intervals. […] Two training techniques were used: “strong” and “weak” training. In both, 5 to 10 minutes after the last pre-training trial, chicks were trained by a 10 s presentation of a 4 mm diameter chrome bead, which had been dipped in the bitter-tasting methylanthranilate. Control chicks pecked at a water-coated or dry bead. In the “strong” version of the task, 100% methylanthranilate was used. In the “weak” version, 10% methylanthranilate was used. Chicks spontaneously pecked at the training or control beads within 20 s. Chicks that pecked at the bitter bead evinced a disgust reaction and would not normally peck at a similar, but dry bead for some hours subsequently. At various times following training chicks were tested, by offering them a dry 4 mm diameter chrome bead, followed 10 minutes later by a small (2 mm diameter) white bead, each for 20 to 30 s. Animals were tested by an experimenter blind as to which treatment each chick had received. Chicks are considered to remember the task if they avoid the chrome bead at test but peck at the white bead (discriminate), and to have forgotten it if they peck at both beads. Recall is calculated as a percent avoidance score (percentage of chicks which avoid the chrome bead) and as a discrimination score (percentage of chicks which avoid the chrome but peck at the white bead). […] Each chick was trained and tested only once and differences between groups tested for statistical significance by g-test described by Sokal and Rohlf (biometry: the Principles and Practice of Statistics in Biological Research (2nd edition), W H Freeman, New York (1981)), the contents of which are incorporated herein by reference. […]

[2] = system: chicks with MK801-induced amnesia; experiment: passive avoidance task, MK801-induced amnesia in chicks; type: in vivo, chick; details: 8 μg/hemisphere ic pre-training; MK801 0.020 mg/100 gr ip pre-training; tested 3 hr later
Experimental: FIG. 8 Effect of Ac-rER on MK801-induced amnesia. Chicks were injected ic with 8 μg/hemisphere of Ac-rER 60 min pre-training followed by ip injection of MK80 1 (0.020 mg/100 gr) pre-training. Controls were injected with saline. Chicks were tested 3 hr later. […] Each chick was trained and tested only once and differences between groups were tested for statistical significance by G-test (Sokal, and Rohlf, 1995).
Commercially obtained Ross Chunky eggs were incubated and hatched in brooders and held until 16±6 hours old. Chicks were placed in pairs in small aluminium pens. Following an equilibration period of an hour, the chicks were pretrained and trained essentially as described by Lossner and Rose (J. Neurochem. 41, 1357-1363 (1983), the contents of which are incorporated herein by reference). Pretraining involved three 10 s presentations of a small (2 mm diameter) white bead, at approximately 5 minute intervals. […] Two training techniques were used: “strong” and “weak” training. In both, 5 to 10 minutes after the last pre-training trial, chicks were trained by a 10 s presentation of a 4 mm diameter chrome bead, which had been dipped in the bitter-tasting methylanthranilate. […] Recall is calculated as a percent avoidance score (percentage of chicks which avoid the chrome bead) and as a discrimination score (percentage of chicks which avoid the chrome but peck at the white bead). […]

[3] = system: chicks with Aβ1-42-induced amnesia; experiment: passive avoidance task in chicks with Aβ-induced amnesia; type: in vivo, chick; details: for protection against amyloid-beta induced memory loss: chick
Experimental: FIG. 2 The effect of Ac-rER on memory in chicks with Aβ-induced amnesia. Chicks were injected 2×ip, 1 mg/100 gr bw, with Ac-rER, 6 hr and 12 hr pre-training. Aβ1-42 (2 μg/hemisphere) was injected ic 60 min pre-training. Chicks were tested 24 hr later. […] Each chick was trained and tested only once and differences between groups were tested for statistical significance by G-test (Sokal, and Rohlf, 1995).
Commercially obtained Ross Chunky eggs were incubated and hatched in brooders and held until 16±6 hours old. Chicks were placed in pairs in small aluminium pens. Following an equilibration period of an hour, the chicks were pretrained and trained essentially as described by Lossner and Rose (J. Neurochem. 41, 1357-1363 (1983), the contents of which are incorporated herein by reference). Pretraining involved three 10 s presentations of a small (2 mm diameter) white bead, at approximately 5 minute intervals. […] Two training techniques were used: “strong” and “weak” training. In both, 5 to 10 minutes after the last pre-training trial, chicks were trained by a 10 s presentation of a 4 mm diameter chrome bead, which had been dipped in the bitter-tasting methylanthranilate. Control chicks pecked at a water-coated or dry bead. In the “strong” version of the task, 100% methylanthranilate was used. In the “weak” version, 10% methylanthranilate was used. Chicks spontaneously pecked at the training or control beads within 20 s. Chicks that pecked at the bitter bead evinced a disgust reaction and would not normally peck at a similar, but dry bead for some hours subsequently. At various times following training chicks were tested, by offering them a dry 4 mm diameter chrome bead, followed 10 minutes later by a small (2 mm diameter) white bead, each for 20 to 30 s. Animals were tested by an experimenter blind as to which treatment each chick had received. […] Recall is calculated as a percent avoidance score (percentage of chicks which avoid the chrome bead) and as a discrimination score (percentage of chicks which avoid the chrome but peck at the white bead). […]

[4] = system: chicks with Anisomycin-induced amnesia; experiment: passive avoidance task, Anisomycin-induced amnesia in chicks; type: in vivo, chick; details: 8 μg/hemisphere ic pre-training; Anisomycin 125 nmol/hemisphere ic immediately post-training; tested 3 hr post training
Experimental: FIG. 7 Effect of Ac-rER on Anisomycin-induced amnesia in chicks. Chicks were injected ic with 8 μg/hemisphere of Ac-rER 60 min pre-training followed by ic injection of Anisomycin (125 nmol/hemisphere). immediately post-training. Controls were injected with saline. Chicks were tested 3 hr post training. […] Each chick was trained and tested only once and differences between groups were tested for statistical significance by G-test (Sokal, and Rohlf, 1995).
Commercially obtained Ross Chunky eggs were incubated and hatched in brooders and held until 16±6 hours old. Chicks were placed in pairs in small aluminium pens. Following an equilibration period of an hour, the chicks were pretrained and trained essentially as described by Lossner and Rose (J. Neurochem. 41, 1357-1363 (1983), the contents of which are incorporated herein by reference). Pretraining involved three 10 s presentations of a small (2 mm diameter) white bead, at approximately 5 minute intervals. […] Two training techniques were used: “strong” and “weak” training. […] Recall is calculated as a percent avoidance score (percentage of chicks which avoid the chrome bead) and as a discrimination score (percentage of chicks which avoid the chrome but peck at the white bead). […]

[5] = system: chicks trained on a weak training task; details: as described in WO02/083729; cited from earlier work

| Compound | performance on the weak training task, FIG. 3 ([1]; 2×ip injections, 1 mg/100 gr bw, 30 min and 6 hr pre-training, tested 24 hr later, control Ac-REr) | bio-activity as a cognitive enhancer [1] | bio-activity as a cognitive enhancer ([1]; listed as Ac-RER) | dose sufficient to enhance memory, FIG. 5 ([1]; ip 60 min pre-training, tested 24 after) [mg per 100 g body weight] | time prior to training at which injection still acts as cognitive enhancer and neuroprotective agent ([1]; ip, FIGS. 2 and 3) | persistence of effect: time before training at which peptide is effective, FIG. 6 ([1]; single ip injection of 1-2 mg/100 g bw, tested 24 hr later) [h] | time of administration before training at which peptide is most effective, FIG. 6 ([1]; single ip injection, weak training) [h] | memory retention (percent showing avoidance and discrimination), FIG. 1 ([1]; tested 24 after) | memory retention (percent showing avoidance and discrimination), FIG. 1 ([1]; tested 24 after, listed as Ac-ReR) | effect on MK801-induced amnesia, FIG. 8 [2] | memory retention in Aβ-induced amnesia, FIG. 2 ([3]; 2×ip, 1 mg/100 gr bw, 6 hr and 12 hr pre-training, Aβ1-42 2 μg/hemisphere ic 60 min pre-training, tested 24 hr later) | protection against amyloid-beta induced memory loss [3] | protection against amyloid-beta induced memory loss ([3]; listed as Ac-RER) | effect on Anisomycin-induced amnesia, FIG. 7 [4] | time prior to training at which injection is still effective (maximum), unprotected L-form [5] [h] |
| --- | --- | --- | --- | --- | --- | --- | --- | --- | --- | --- | --- | --- | --- | --- | --- |
| CC(=O)NC(CCCNC(=N)N)C(=O)NC(CCC(=O)O)C(=O)N[C@@H](CCCNC(=N)N)C(N)=O (stereo partly drawn) [Ac-rER] (Ac-[ξR]-[ξE]-Arg-NH2) | significantly enhanced; also recorded: effective when injected peripherally | active as a cognitive enhancer | effective as a cognitive enhancer | 1 | up to 12 hr | ≤ 12 | 4 | enhances memory retention to the levels observed in the chick treated with the Ac-L/L/L/ form | significant but lesser effects | prevents either of these drugs from inducing amnesia | restores cognitive function and prevents memory loss | protecting against amyloid-beta induced memory loss | protecting against amyloid-beta | prevents either of these drugs from inducing amnesia | – |
| Arg-Glu-Arg [RER] | – | – | – | – | – | – | – | – | – | – | – | – | – | – | ≤ 3 |

— patent US20090221513A1, “Treatment of Neurodegenerative Disorders” (The Open University, priority 2005, published 2009)
